Legend:
Mus musculus [1] = test: In vivo antitumor activity against murine sarcoma 180 cells at an optimal dose of 2 mg/kg.; assay type: functional
Mus musculus [2] = test: In vivo antitumor activity against lymphocytic leukemia P388 in mice expressed as maximal increase in life span at an optimal dose of 2 mg/kg.; assay type: functional
HeLa = test: In vitro antiproliferative activity against HeLa S3 cells.; assay type: functional, cell-based; conditions: Homo sapiens
Mus musculus [3] = test: In vivo antitumor activity against lymphocytic leukemia P388 in mice expressed as maximal increase in life span at an optimal dose of 8 mg/kg.; assay type: functional
Mus musculus [4] = test: In vivo antitumor activity against murine sarcoma 180 cells at an optimal dose of 4 mg/kg.; assay type: functional
Mus musculus [5] = test: Antitumor activity against human Lu-65 tumor cells, at a dose of 5.3 mg/kg upon i.v. administration in nude mice; assay type: functional; conditions: route intravenous
Mus musculus [6] = test: In vivo antitumor activity against murine sarcoma 180 cells at an optimal dose of 8 mg/kg.; assay type: functional
Mus musculus [7] = test: In vivo antitumor activity against murine sarcoma 180 cells at an optimal dose of 16 mg/kg.; assay type: functional
Mus musculus [8] = test: Antitumor activity against human A-2780 tumor cells, at a dose of 12 mg/kg upon i.v. administration in nude mice; assay type: functional; conditions: route intravenous
Mus musculus [9] = test: In vivo antitumor activity against lymphocytic leukemia P388 in mice expressed as maximal increase in life span at an optimal dose of 4 mg/kg.; assay type: functional
Mus musculus [10] = test: Antitumor activity against human Lu-65 tumor cells, at a dose of 12 mg/kg upon i.v. administration in nude mice; assay type: functional; conditions: route intravenous
Mus musculus [11] = test: In vivo antitumor activity against lymphocytic leukemia P388 in mice expressed as maximal increase in life span at an optimal dose of 16 mg/kg.; assay type: functional
Mus musculus [12] = test: Antitumor activity against human Lu-65 tumor cells, at a dose of 8 mg/kg upon i.v. administration in nude mice; assay type: functional; conditions: route intravenous

Structure (SMILES)	IC50 (HeLa)	T/C (Mus musculus [6])	also measured
C/C1=C\[C@@H](O)C(=O)/C=C/C=Cc2csc(n2)[C@@H](C)N2C(=O)C[C@@]([C@@](C)(O)C(=O)SCc3oc(=O)oc3C)(CC1)[S+]2[O-] (stereo not given in full)			T/C (Mus musculus [1]): 0.67; ILS at 2 mg/kg (Mus musculus [2]): 65%
C/C1=C\[C@@H](OC(=O)CNC(=O)CNC(=O)OCc2ccccc2)C(=O)/C=C/C=C/c2csc(n2)[C@@H](C)N2C(=O)C[C@@]([C@@](C)(O)C(=O)SCc3oc(=O)oc3C)(CC1)[S+]2[O-] (stereo not given in full)	15 nM		ILS at 8 mg/kg (Mus musculus [3]): 64%; T/C (Mus musculus [4]): 0.61
COCCOCCOCC(=O)O[C@@H]1/C=C(\C)CC[C@]2([C@@](C)(O)C(=O)SCc3oc(=O)oc3C)CC(=O)N([C@H](C)c3nc(cs3)/C=C/C=C/C1=O)[S+]2[O-] (stereo not given in full)	5.5 nM	0.39	ILS at 2 mg/kg (Mus musculus [2]): 54%; T/C (Mus musculus [5]): 0.35
C/C1=C\[C@@H](OC(=O)CNC(=O)CCNC(=O)OC(C)(C)C)C(=O)/C=C/C=C/c2csc(n2)[C@@H](C)N2C(=O)C[C@@]([C@@](C)(O)C(=O)SCc3oc(=O)oc3C)(CC1)[S+]2[O-] (stereo not given in full)	12 nM		T/C (Mus musculus [7]): 0.23; ILS at 8 mg/kg (Mus musculus [3]): 70%
C/C1=C\[C@@H](OC(=O)CNC(=O)CNC(=O)OC(C)(C)C)C(=O)/C=C/C=C/c2csc(n2)[C@@H](C)N2C(=O)C[C@@]([C@@](C)(O)C(=O)SCc3oc(=O)oc3C)(CC1)[S+]2[O-] (stereo not given in full)	14 nM	0.39	T/C (Mus musculus [8]): 0.51; ILS at 4 mg/kg (Mus musculus [9]): 39%; T/C (Mus musculus [10]): 0.33
C/C1=C\[C@@H](OC(=O)CNC(=O)OCc2ccccc2)C(=O)/C=C/C=C/c2csc(n2)[C@@H](C)N2C(=O)C[C@@]([C@@](C)(O)C(=O)SCc3oc(=O)oc3C)(CC1)[S+]2[O-] (stereo not given in full)	4 nM		T/C (Mus musculus [7]): 0.36; ILS at 8 mg/kg (Mus musculus [3]): 98%
COCCOCCOCCOCCOCCOCC(=O)O[C@@H]1/C=C(\C)CC[C@]2([C@@](C)(O)C(=O)SCc3oc(=O)oc3C)CC(=O)N([C@H](C)c3nc(cs3)/C=C/C=C/C1=O)[S+]2[O-] (stereo not given in full)	43 nM	0.58	
C/C1=C\[C@@H](OC(=O)CNC(=O)CNC(=O)c2ccccc2)C(=O)/C=C/C=C/c2csc(n2)[C@@H](C)N2C(=O)C[C@@]([C@@](C)(O)C(=O)SCc3oc(=O)oc3C)(CC1)[S+]2[O-] (stereo not given in full)	32 nM	0.46	ILS at 16 mg/kg (Mus musculus [11]): 90%
C/C1=C\[C@@H](OC(=O)CCNC(=O)CCNC(=O)OCc2ccccc2)C(=O)/C=C/C=C\c2csc(n2)[C@H](C)NC(=O)C[C@@]2(CC1)[S+]([O-])SC(=O)[C@]2(C)O (stereo not given in full)	61 nM		T/C (Mus musculus [7]): 0.58; ILS at 16 mg/kg (Mus musculus [11]): 62%
COCCOCCOCCOCCOCCOCC(=O)O[C@@H]1/C=C(\C)CC[C@]2(CC(=O)N[C@@H](C)c3nc(cs3)/C=C\C=C\C1=O)[S+]([O-])SC(=O)[C@]2(C)O (stereo not given in full)	11 nM	0.3	T/C (Mus musculus [12]): 0.2
COCCOCCOCCOCC(=O)O[C@@H]1/C=C(\C)CC[C@]2(CC(=O)N[C@@H](C)c3nc(cs3)/C=C\C=C\C1=O)[S+]([O-])SC(=O)[C@]2(C)O (stereo not given in full)	610 nM		T/C (Mus musculus [4]): 0.82
C/C1=C\[C@@H](OC(=O)COCCOCCO)C(=O)/C=C/C=C\c2csc(n2)[C@H](C)NC(=O)C[C@@]2(CC1)[S+]([O-])SC(=O)[C@]2(C)O (stereo not given in full)	25 nM		T/C (Mus musculus [4]): 0.36
C/C1=C\[C@@H](OC(=O)CCNC(=O)CNC(=O)OCc2ccccc2)C(=O)/C=C/C=C\c2csc(n2)[C@H](C)NC(=O)C[C@@]2(CC1)[S+]([O-])SC(=O)[C@]2(C)O (stereo not given in full)	150 nM		T/C (Mus musculus [7]): 0.69; ILS at 16 mg/kg (Mus musculus [11]): 71%
C/C1=C\[C@@H](OC(=O)CNC(=O)CNC(=O)c2ccccc2)C(=O)/C=C/C=C\c2csc(n2)[C@H](C)NC(=O)C[C@@]2(CC1)[S+]([O-])SC(=O)[C@]2(C)O (stereo not given in full)	8.7 nM	0.42	ILS at 8 mg/kg (Mus musculus [3]): 78%
COCCOCCOCCOCCOCC(=O)O[C@@H]1/C=C(\C)CC[C@]2(CC(=O)N[C@@H](C)c3nc(cs3)/C=C\C=C\C1=O)[S+]([O-])SC(=O)[C@]2(C)O (stereo not given in full)	240 nM	0.51	
COCCOCC(=O)OCCOCCOCC(=O)O[C@@H]1/C=C(\C)CC[C@]2(CC(=O)N[C@@H](C)c3nc(cs3)/C=C\C=C\C1=O)[S+]([O-])SC(=O)[C@]2(C)O (stereo not given in full)		0.12	
C/C1=C\[C@@H](OC(=O)CNC(=O)[C@@H](C)NC(=O)OCc2ccccc2)C(=O)/C=C/C=C\c2csc(n2)[C@H](C)NC(=O)C[C@@]2(CC1)[S+]([O-])SC(=O)[C@]2(C)O (stereo not given in full)	34 nM		T/C (Mus musculus [7]): 0.61; ILS at 8 mg/kg (Mus musculus [3]): 58%
COCCOCCOCC(=O)O[C@@H]1/C=C(\C)CC[C@]2(CC(=O)N[C@@H](C)c3nc(cs3)/C=C\C=C\C1=O)[S+]([O-])SC(=O)[C@]2(C)O (stereo not given in full)	66 nM		T/C (Mus musculus [4]): 0.3
C/C1=C\[C@@H](OC(=O)CNC(=O)CN(C)C(=O)OCc2ccccc2)C(=O)/C=C/C=C\c2csc(n2)[C@H](C)NC(=O)C[C@@]2(CC1)[S+]([O-])SC(=O)[C@]2(C)O (stereo not given in full)	67 nM	0.61	ILS at 4 mg/kg (Mus musculus [9]): 70%
C/C1=C\[C@@H](OC(=O)COCCOCCOCCOCCO)C(=O)/C=C/C=C\c2csc(n2)[C@H](C)NC(=O)C[C@@]2(CC1)[S+]([O-])SC(=O)[C@]2(C)O (stereo not given in full)		0.18	
C/C1=C\[C@@H](OC(=O)[C@@H](C)NC(=O)OCc2ccccc2)C(=O)/C=C/C=C\c2csc(n2)[C@H](C)NC(=O)C[C@@]2(CC1)[S+]([O-])SC(=O)[C@]2(C)O (stereo not given in full)	45 nM		ILS at 4 mg/kg (Mus musculus [9]): 52%; T/C (Mus musculus [4]): 0.56
C/C1=C\[C@@H](OC(=O)CNC(=O)[C@H](NC(=O)OCc2ccccc2)C(C)C)C(=O)/C=C/C=C\c2csc(n2)[C@H](C)NC(=O)C[C@@]2(CC1)[S+]([O-])SC(=O)[C@]2(C)O (stereo not given in full)	16 nM	0.56	ILS at 8 mg/kg (Mus musculus [3]): 67%
C/C1=C\[C@@H](OC(=O)CCNC(=O)OCc2ccccc2)C(=O)/C=C/C=C\c2csc(n2)[C@H](C)NC(=O)C[C@@]2(CC1)[S+]([O-])SC(=O)[C@]2(C)O (stereo not given in full)	40 nM		ILS at 4 mg/kg (Mus musculus [9]): 53%; T/C (Mus musculus [4]): 0.79
C/C1=C\[C@@H](OC(=O)CNC(=O)CCNC(=O)OC(C)(C)C)C(=O)/C=C/C=C\c2csc(n2)[C@H](C)NC(=O)C[C@@]2(CC1)[S+]([O-])SC(=O)[C@]2(C)O (stereo not given in full)	170 nM	0.45	ILS at 8 mg/kg (Mus musculus [3]): 67%
C/C1=C\[C@@H](OC(=O)CNC(=O)CCNC(=O)OCc2ccccc2)C(=O)/C=C/C=C\c2csc(n2)[C@H](C)NC(=O)C[C@@]2(CC1)[S+]([O-])SC(=O)[C@]2(C)O (stereo not given in full)	20 nM	0.55	ILS at 16 mg/kg (Mus musculus [11]): 76%
C/C1=C\[C@@H](OC(=O)CN(C)C(=O)OCc2ccccc2)C(=O)/C=C/C=C\c2csc(n2)[C@H](C)NC(=O)C[C@@]2(CC1)[S+]([O-])SC(=O)[C@]2(C)O (stereo not given in full)	52 nM	0.74	ILS at 4 mg/kg (Mus musculus [9]): 48%
COCCOCCOCCOCCOCCOCCOCC(=O)O[C@@H]1/C=C(\C)CC[C@]2(CC(=O)N[C@@H](C)c3nc(cs3)/C=C\C=C\C1=O)[S+]([O-])SC(=O)[C@]2(C)O (stereo not given in full)	210 nM		
CC(=O)NCC(=O)O[C@@H]1/C=C(\C)CC[C@]2(CC(=O)N[C@@H](C)c3nc(cs3)/C=C\C=C\C1=O)[S+]([O-])SC(=O)[C@]2(C)O (stereo not given in full)	13 nM		T/C (Mus musculus [1]): 0.67; ILS at 4 mg/kg (Mus musculus [9]): 66%

Reference: ChEMBL document CHEMBL1145735, “Synthesis and antitumor activity of novel C-8 ester derivatives of leinamycin” (Bioorg Med Chem Lett, 2003)
